Legend:
Test in all cases: selective drug sensitivity score (sDSS, relative to normal bone marrow) (sDSS (score)); higher = more potent and effective on the cell line relative to normal bone marrow cells
Conditions in all cases: 72 h
MHH-CALL-4 = system: MHH-CALL-4
CCRF-HSB2 = system: CCRF-HSB2
PEER = system: PEER
ALL-PO = system: ALL-PO
SUP-B15 = system: SUP-B15
KASUMI-10 = system: KASUMI-10
HPB-ALL = system: HPB-ALL
KARPAS-45 = system: KARPAS-45
CCRF-CEM = system: CCRF-CEM
697 = system: 697
JURKAT = system: JURKAT
SEM cells = system: SEM cells
P30-OHKUBO = system: P30-OHKUBO
COG-LL-394h = system: COG-LL-394h
MOLT-14 = system: MOLT-14
LC4-1 = system: LC4-1
COG-LL-319h = system: COG-LL-319h
PF-382 = system: PF-382
NALL-1 = system: NALL-1
380 = system: 380
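Further: ALL cell lines in 384-well plates, five doses spanning 10,000-fold, each plate scaled between vehicle and 100 µmol/L benzalkonium chloride controls, sDSS an adapted area-under-curve metric.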

Structure (SMILES) | selective drug sensitivity score (MHH-CALL-4) | selective drug sensitivity score (CCRF-HSB2) | selective drug sensitivity score (PEER) | selective drug sensitivity score (ALL-PO) | selective drug sensitivity score (SUP-B15) | selective drug sensitivity score (KASUMI-10) | selective drug sensitivity score (HPB-ALL) | selective drug sensitivity score (KARPAS-45) | selective drug sensitivity score (CCRF-CEM) | selective drug sensitivity score 697 | selective drug sensitivity score (JURKAT) | selective drug sensitivity score (SEM cells) | selective drug sensitivity score (P30-OHKUBO) | selective drug sensitivity score (COG-LL-394h) | selective drug sensitivity score (MOLT-14) | selective drug sensitivity score (LC4-1) | selective drug sensitivity score (COG-LL-319h) | selective drug sensitivity score (PF-382) | selective drug sensitivity score (NALL-1) | selective drug sensitivity score 380
COCCNCc1ccc(-c2cc3nccc(Oc4ccc(NC(=S)NC(=O)Cc5ccc(F)cc5)cc4F)c3s2)nc1 [Glesatinib] (top concentration 2500 nM) | 0.14 | 11.7 | 4.54 | 9.04 | 7.24 | 8.74 | -0.26 | 2.34 | -1.06 | 0.04 | -1.96 | 14.1 | -0.76 | 0.84 | 0.54 | 1.94 | 3.74 | -0.56 | 2.94 | -1.96
Cc1cc(Nc2ncc(Cl)c(Nc3ccccc3S(=O)(=O)C(C)C)n2)c(OC(C)C)cc1C1CCNCC1 [Ceritinib] (top concentration 2500 nM) | -0.74 | -3.44 | -3.44 | -0.94 | -3.44 | 0.36 | 1.86 | -2.54 | -3.34 | -2.24 | -3.44 | -3.44 | -2.44 | 5.16 | -3.44 | 3.06 | 6.66 | -3.24 | -2.14 | 0.36
Cc1cn(-c2cc(NC(=O)c3ccc(C)c(Nc4nccc(-c5cnccn5)n4)c3)cc(C(F)(F)F)c2)cn1 [Radotinib] (top concentration 10000 nM) | 0 | 8.2 | 19.3 | 3.7 | 36.2 | 0 | 6.4 | 0 | 0 | 5.7 | 0 | 0 | 5.1 | 1.8 | 0.6 | 13.8 | 13.2 | 0.2 | 0 | 1.8
CC1CCC(n2c3cnccc3c3cnc(Nc4ccc5c(n4)CCN(C(=O)CO)C5)nc32)CC1 (stereo not given) [AMG-925] (top concentration 1000 nM) | 3.54 | 1.94 | 5.54 | 11.4 | 11.7 | 9.54 | 5.84 | 1.84 | 3.14 | 11.4 | 4.54 | 10 | 8.14 | -0.66 | 6.14 | 9.24 | 6.44 | 5.44 | -0.16 | 2.44
COc1cccc(OCCCN)c1-c1cc(Nc2cnc(C#N)cn2)n[nH]1 [Prexasertib] (top concentration 10000 nM) | 11.4 | 18.6 | 17.9 | 14.5 | 20.9 | 16.1 | 14.6 | 17.5 | 18.8 | 18.4 | 17.4 | 15.9 | 21.3 | -0.96 | 18.4 | 19.6 | 19.4 | 16.9 | 19.4 | 15.7
CNCc1ccc(-c2[nH]c3cc(F)cc4c3c2CCNC4=O)cc1 [Rucaparib] (top concentration 10000 nM) | 5.92 | 1.22 | -0.08 | -0.58 | 5.42 | 1.12 | -0.58 | 0.72 | 1.32 | 6.42 | -0.58 | 2.72 | 0.42 | 0.92 | 1.62 | 0.32 | 6.32 | -0.58 | -0.58 | 11.5
Cc1noc2c1-c1ccccc1C(c1ccc(Cl)cc1)=N[C@H]2CC(N)=O [CPI-0610] (top concentration 10000 nM) | -4.1 | 0.8 | -1.9 | 7.9 | 5.7 | 4.6 | 1 | 6.7 | -0.1 | 7.1 | -0.2 | 7.5 | 6.1 | 0.5 | 0.3 | 3.6 | 10.3 | 3.5 | -4.4 | 1.7
O=c1[nH]c(C2CCCN2)nc2c1oc1ccc(Cl)cc12 (stereo not given) (top concentration 10000 nM) | -1.2 | 3.7 | 0.3 | -0.2 | 1.8 | -2.7 | -2.4 | 0.9 | 5.8 | 6.2 | -2.8 | -1.6 | 1.2 | 0.5 | 6.4 | 1.8 | 2 | 2.4 | 0.8 | 13.1
O=C(CCCCCCC(=O)Nc1ccc([C@H]2O[C@@H](CSc3nc(-c4ccccc4)c(-c4ccccc4)o3)C[C@@H](c3ccc(CO)cc3)O2)cc1)NO [Tubacin] (top concentration 10000 nM) | 7.84 | 15.8 | 7.14 | 5.74 | 16.5 | 4.54 | 4.44 | 5.04 | 8.74 | 8.54 | 4.14 | 9.44 | 7.44 | 5.44 | 8.34 | 7.14 | 15.9 | 8.14 | 7.54 | 20.4

From the supplement of paper PMC8967900
